Our source for the IC50 values is ChEMBL document CHEMBL5046249, “Synthesis, biological evaluation and cellular localization study of fluorescent derivatives of Jiyuan Oridonin A” (Eur J Med Chem, 2022).

Where only a bound is given, the exact number is not on record here.

What all share (type): functional, cell-based
One test deals with PC-3. Put plainly: Antiproliferative activity against human PC-3 cells assessed as inhibition of cell growth measured after 72 hrs by SRB assay. The settings on record: PC-3, 72 h.
A further test has as its system TE-1. Description: Antiproliferative activity against human TE-1 cells assessed as inhibition of cell growth measured after 72 hrs by SRB assay. The settings on record: TE-1, 72 h.
A further test has as its system MGC-803. Description: Antiproliferative activity against human MGC-803 cells assessed as inhibition of cell growth measured after 72 hrs by SRB assay. The settings on record: MGC-803, 72 h.
The subject of the next test is HGC-27. Put plainly: Antiproliferative activity against human HGC-27 cells assessed as inhibition of cell growth measured after 72 hrs by SRB assay. To be noted: HGC-27, 72 h.
A further test deals with SW1990. Description: Antiproliferative activity against human SW1990 cells assessed as inhibition of cell growth measured after 72 hrs by SRB assay. The settings on record: SW1990, 72 h.

On to `C=C1C(=O)[C@]23[C@H](O)[C@H]1C[C@H](O)[C@H]2[C@]12CCCC(C)(C)[C@H]1C[C@H]3O[C@H]2OCCCCc1cn(CCCCCCN2C(=O)c3cccc4c(N5CCCCC5)ccc(c34)C2=O)nn1`, for which the 50% inhibitory concentration (IC50) in the test on PC-3 is 2.2 µM; with TE-1 it was 4.33 µM; with MGC-803 it was 2.11 µM; with HGC-27, 2.09 µM; in the test with SW1990, 2.87 µM.

Take `[N-]=[N+]=NCCOCCOCCOCCN1C(=O)c2cccc3c(N4CCCCC4)ccc(c23)C1=O`: the IC50 in the test on PC-3, in the test with TE-1, in the test on MGC-803, in the test with HGC-27 and in the test on SW1990 was > 32 µM throughout.

`C=C1C(=O)[C@]23[C@H](O)[C@H]1C[C@H](O)[C@H]2[C@]12CCCC(C)(C)[C@H]1C[C@H]3O[C@H]2OCCCCCc1cn(CCOCCOCCN2C(=O)c3cccc4c(N5CCCCC5)ccc(c34)C2=O)nn1`: the IC50 in the test on PC-3 came to 1.21 µM; in the test on TE-1, 1.86 µM; with MGC-803, 2.64 µM; with HGC-27 it was 1.8 µM; with SW1990 it was 2.15 µM.

As for `C=C1C(=O)[C@]23[C@H](O)[C@H]1C[C@H](O)[C@H]2[C@]12CCCC(C)(C)[C@H]1C[C@H]3O[C@H]2OCCCCCCc1cn(CCOCCN2C(=O)c3cccc4c(N5CCCCC5)ccc(c34)C2=O)nn1`, the IC50 with PC-3 was determined as 1.49 µM; in the test with TE-1, 1.53 µM; with MGC-803 it was 1.93 µM; with HGC-27, 1.17 µM; in the test on SW1990, 1.78 µM.

In the case of `C=C1C(=O)[C@]23[C@H](O)[C@H]1C[C@H](O)[C@H]2[C@]12CCCC(C)(C)[C@H]1C[C@H]3O[C@H]2OCCCCCc1cn(CCN2C(=O)c3cccc4c(N5CCCCC5)ccc(c34)C2=O)nn1`, the IC50 came to 2.47 µM in the test with PC-3; 5.36 µM with TE-1; 2.72 µM with MGC-803; 4.41 µM in the test on HGC-27; 4.63 µM in the test with SW1990.

As to `C#CCCCCO[C@@H]1O[C@@H]2C[C@@H]3C(C)(C)CCC[C@]13[C@@H]1[C@@H](O)C[C@H]3C(=C)C(=O)[C@@]21[C@@H]3O`, the IC50 with PC-3 came out at 4.32 µM; in the test on TE-1, 5.67 µM; in the test with MGC-803, 2.55 µM; with HGC-27, 3 µM; in the test on SW1990, 3.34 µM.

For `C=C1C(=O)[C@]23[C@H](O)[C@H]1C[C@H](O)[C@H]2[C@]12CCCC(C)(C)[C@H]1C[C@H]3O[C@H]2OCCCCc1cn(CCCCN2C(=O)c3cccc4c(N5CCCCC5)ccc(c34)C2=O)nn1`, the IC50 came to 0.91 µM in the test on PC-3; 3.89 µM with TE-1; 1.69 µM with MGC-803; 1.82 µM in the test with HGC-27; 0.86 µM in the test with SW1990.

As to `C=C1C(=O)[C@]23[C@H](O)[C@H]1C[C@H](O)[C@H]2[C@]12CCCC(C)(C)[C@H]1C[C@H]3O[C@H]2OCCCCCCc1cn(CCOCCOCCOCCN2C(=O)c3cccc4c(N5CCCCC5)ccc(c34)C2=O)nn1`, the IC50 in the test on PC-3 is 1.27 µM; in the test on TE-1, 3.08 µM; in the test on MGC-803, 3.87 µM; with HGC-27 it was 1.44 µM; in the test on SW1990 it was 2.64 µM.

For the compound `C=C1C(=O)[C@]23[C@H](O)[C@H]1C[C@H](O)[C@H]2[C@]12CCCC(C)(C)[C@H]1C[C@H]3O[C@H]2OCCCc1cn(CCCN2C(=O)c3cccc4c(N5CCCCC5)ccc(c34)C2=O)nn1`, the IC50 amounted to 1.24 µM in the test with PC-3; 3.54 µM in the test with TE-1; 1.32 µM in the test on MGC-803; 4.11 µM in the test on HGC-27; 1.13 µM with SW1990.

As for `C=C1C(=O)[C@]23[C@H](O)[C@H]1C[C@H](O)[C@H]2[C@]12CCCC(C)(C)[C@H]1C[C@H]3O[C@H]2OCCCCCc1cn(CCCCCCN2C(=O)c3cccc4c(N5CCCCC5)ccc(c34)C2=O)nn1`, the half-maximal inhibitory concentration (IC50) worked out at 0.99 µM in the test on PC-3; 10.1 µM in the test with TE-1; 5.88 µM in the test on MGC-803; 2.17 µM with HGC-27; 5.02 µM in the test on SW1990.

Regarding `C=C1C(=O)[C@]23[C@H](O)[C@H]1C[C@H](O)[C@H]2[C@]12CCCC(C)(C)[C@H]1C[C@H]3O[C@H]2OCCCCc1cn(CCCCCN2C(=O)c3cccc4c(N5CCCCC5)ccc(c34)C2=O)nn1`, the IC50 with PC-3 is 1.27 µM; with TE-1, 6.38 µM; in the test on MGC-803, 3.07 µM; in the test on HGC-27, 1.95 µM; with SW1990 it was 2.69 µM.

In the case of `C#CCCCCCCO[C@@H]1O[C@@H]2C[C@@H]3C(C)(C)CCC[C@]13[C@@H]1[C@@H](O)C[C@H]3C(=C)C(=O)[C@@]21[C@@H]3O`, the IC50 was 2.88 µM with PC-3; 3.18 µM in the test with TE-1; 1.97 µM in the test on MGC-803; 3.01 µM in the test with HGC-27; 3.26 µM in the test on SW1990.

With `[N-]=[N+]=NCCCCN1C(=O)c2cccc3c(N4CCCCC4)ccc(c23)C1=O`, the half-inhibitory concentration (IC50) in the test with PC-3, with TE-1, in the test with MGC-803, in the test on HGC-27 and in the test with SW1990 was > 32 µM in each case.

On to `C=C1C(=O)[C@]23[C@H](O)[C@H]1C[C@H](O)[C@H]2[C@]12CCCC(C)(C)[C@H]1C[C@H]3O[C@H]2OCCCCCc1cn(CCCCN2C(=O)c3cccc4c(N5CCCCC5)ccc(c34)C2=O)nn1`, for which the IC50 turned out to be 1.34 µM with PC-3; 5.13 µM with TE-1; 2.72 µM with MGC-803; 3.01 µM in the test on HGC-27; 4.65 µM with SW1990.

On to `C=C1C(=O)[C@]23[C@H](O)[C@H]1C[C@H](O)[C@H]2[C@]12CCCC(C)(C)[C@H]1C[C@H]3O[C@H]2OCCCc1cn(CCOCCOCCOCCN2C(=O)c3cccc4c(N5CCCCC5)ccc(c34)C2=O)nn1`, for which the IC50 in the test on PC-3 turned out to be 0.81 µM; in the test with TE-1, 1.44 µM; in the test with MGC-803, 2.18 µM; in the test on HGC-27 it was 3.11 µM; in the test on SW1990, 1.64 µM.

Take `C=C1C(=O)[C@]23[C@H](O)[C@H]1C[C@H](O)[C@H]2[C@]12CCCC(C)(C)[C@H]1C[C@H]3O[C@H]2OCCCc1cn(CCCCN2C(=O)c3cccc4c(N5CCCCC5)ccc(c34)C2=O)nn1`: the IC50 with PC-3 worked out at 1.24 µM; in the test with TE-1, 2.08 µM; in the test with MGC-803 it was 1.27 µM; with HGC-27, 2.24 µM; in the test with SW1990, 0.87 µM.

For `C=C1C(=O)[C@]23[C@H](O)[C@H]1C[C@H](O)[C@H]2[C@]12CCCC(C)(C)[C@H]1C[C@H]3O[C@H]2OCCCc1cn(CCN2C(=O)c3cccc4c(N5CCCCC5)ccc(c34)C2=O)nn1`, the IC50 came out at 0.47 µM with PC-3; 4.8 µM in the test with TE-1; 1.23 µM in the test with MGC-803; 2.97 µM with HGC-27; 1.36 µM with SW1990.

Consider `C=C1C(=O)[C@]23[C@H](O)[C@H]1C[C@H](O)[C@H]2[C@]12CCCC(C)(C)[C@H]1C[C@H]3O[C@H]2OCCCCCCc1cn(CCCCCCN2C(=O)c3cccc4c(N5CCCCC5)ccc(c34)C2=O)nn1`, for which the IC50 in the test with PC-3 was 3 µM; with TE-1, 4.05 µM; with MGC-803, 3.65 µM; with HGC-27, 5.88 µM; with SW1990, 4.88 µM.

For the compound `C=C1C(=O)[C@]23[C@H](O)[C@H]1C[C@H](O)[C@H]2[C@]12CCCC(C)(C)[C@H]1C[C@H]3O[C@H]2OCCc1cn(CCOCCN2C(=O)c3cccc4c(N5CCCCC5)ccc(c34)C2=O)nn1`, the IC50 in the test on PC-3 turned out to be 0.99 µM; with TE-1, 1.31 µM; with MGC-803, 2.13 µM; with HGC-27, 4.14 µM; with SW1990, 1.18 µM.

With `C=C1C(=O)[C@]23[C@H](O)[C@H]1C[C@H](O)[C@H]2[C@]12CCCC(C)(C)[C@H]1C[C@H]3O[C@H]2OCCCc1cn(CCCCCN2C(=O)c3cccc4c(N5CCCCC5)ccc(c34)C2=O)nn1`, the IC50 in the test on PC-3 was 1.67 µM; with TE-1, 3.94 µM; in the test with MGC-803, 1.53 µM; in the test on HGC-27, 3.31 µM; in the test on SW1990, 1.38 µM.

In the case of `C=C1C(=O)[C@]23[C@H](O)[C@H]1C[C@H](O)[C@H]2[C@]12CCCC(C)(C)[C@H]1C[C@H]3O[C@H]2OCCCCc1cn(CCCN2C(=O)c3cccc4c(N5CCCCC5)ccc(c34)C2=O)nn1`, the IC50 in the test with PC-3 is 0.77 µM; in the test on TE-1 it was 2.64 µM; in the test on MGC-803, 1.2 µM; with HGC-27, 6.13 µM; with SW1990, 3.31 µM.

Turning to `C=C1C(=O)[C@]23[C@H](O)[C@H]1C[C@H](O)[C@H]2[C@]12CCCC(C)(C)[C@H]1C[C@H]3O[C@H]2OCCCCc1cn(CCOCCN2C(=O)c3cccc4c(N5CCCCC5)ccc(c34)C2=O)nn1`, the IC50 is 1.24 µM in the test on PC-3; 2.7 µM with TE-1; 3.21 µM in the test with MGC-803; 1.95 µM in the test with HGC-27; 2.25 µM in the test on SW1990.

Regarding `C=C1C(=O)[C@]23[C@H](O)[C@H]1C[C@H](O)[C@H]2[C@]12CCCC(C)(C)[C@H]1C[C@H]3O[C@H]2OCCc1cn(CCN2C(=O)c3cccc4c(N5CCCCC5)ccc(c34)C2=O)nn1`, the IC50 with PC-3 is 2.5 µM; in the test on TE-1, 3.34 µM; with MGC-803 it was 0.96 µM; in the test with HGC-27 it was 2.64 µM; in the test with SW1990 it was 0.88 µM.

As for `C=C1C(=O)[C@]23[C@H](O)[C@H]1C[C@H](O)[C@H]2[C@]12CCCC(C)(C)[C@H]1C[C@H]3O[C@H]2OCCc1cn(CCOCCOCCOCCN2C(=O)c3cccc4c(N5CCCCC5)ccc(c34)C2=O)nn1`, the IC50 amounted to 0.93 µM in the test on PC-3; 1.87 µM in the test on TE-1; 2.65 µM in the test with MGC-803; 5.26 µM in the test on HGC-27; 1.56 µM with SW1990.
